Like-named read-outs stand apart in the source and are kept apart here.
Experiments:
[1] = tested on: rat transient Middle Cerebral Artery Occlusion (tMCAO) model; assay: Rat tMCAO model, acute phase (TTC, mNSS, peri-infarct cortex); format: in vivo
Protocol: (§1) Cpd.51 was dissolved in solvent (10% DMSO, 10% Solutol HS-15 and 80% saline). It was injected (i.v.) at dose of 3 mg/kg or 5 mg/kg in a 0.5 mL volume. The Sham group and Vehicle group were treated simultaneously with an equal volume of solvent. In the experiment to explore the treatment time window, we merely administered the drug to the rats at different time points, while all other procedures remained unchanged. In the short-term toxicity study, 10 mg/kg Cpd.51 and Oma were administered via tail vein injection at 0.5 mL daily for 7 consecutive days.
All rats were fasted for more than 12 h before the operation began. Transient focal cerebral ischemia was induced by middle cerebral artery occlusion (MCAO) in rat, as previously described, [29]. In short, after anesthetizing the rats with 2.5% tribromoethanol, the right common carotid artery (CCA), external carotid artery (ECA), and internal carotid artery (ICA) were isolated. […] The body temperature of the animals was maintained between 36.5 °C and 37.5 °C.
After the behavioral assessments, rats were euthanized and the brain harvested. Brain tissue was cut into five coronal sections (2 mm thick) and incubated in 2% TTC (298-96-4, TCI, Japan) for 20 min at 37 °C. The volume of ischemic brain injury was measured using ImageJ (US National Institutes of […], Bethesda, MD, USA).
To assess the degree of neurological impairment, we conducted modified Neurological Severity Score (mNSS) according to previous experience. The investigator was blinded to the grouping situation during the whole experiment.
The anesthetized-animals were transcardially perfused with 0.9% saline in vivo. The ischemic penumbral tissue was isolated from rats and grinded in PBS. Similarly, in vitro, the cells were digested with pancreatic enzymes and placed in PBS. Next, repeatedly freeze and thaw three times in liquid nitrogen and 37 °C water. Sample supernatant was taken for testing according to the MDA or GSH assay kit instructions (S0131M or S0053, Beyotime, China).
Brain tissue was fixed with 4% paraformaldehyde and immersed in 15% sucrose and 30% sucrose at 4 °C overnight. Coronal brain sections (thickness = 20 μm) were incubated with blocking solution for 1.5 h at room temperature followed by incubation with primary antibodies: anti-Nrf2 (1:200, CST), anti-DHRS3 (1:300, Proteintech), anti-NeuN (1:500, Servicebio), anti-GFAP (1:500, Abcam) and anti-Iba-1 (1:500, Abcam). Subsequent immunostaining assays were performed as previously described of cells.

[2] = molecular target: Keap1 BTB domain fragment (48-149) (Homo sapiens, UniProt Q14145); assay: SPR binding to truncated Keap1 (48-149)
Sequence of Keap1 BTB domain fragment (48-149) (Q14145 48-149): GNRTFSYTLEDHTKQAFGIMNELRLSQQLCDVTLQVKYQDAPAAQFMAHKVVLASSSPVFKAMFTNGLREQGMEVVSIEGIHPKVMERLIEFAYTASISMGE
Protocol: (§2) The binding affinity of Cpd.51 or Oma to Keap1 proteins were measured using a Biacore T200. The overall experimental procedures were based on previous reports, [28]. Human recombinant Keap1 proteins or truncated form of Keap1 (residues 48-180 and residues 48-149) were captured on a CM5 chip by a standard amine coupling procedure. Binding sensorgrams were recorded by injecting various concentrations of Cpd.51 over the immobilized proteins surface. The dissociation constant was obtained by globally fitting the data (to the 1:1 Langmuir binding model using the Biacore Insight evaluation software (Cytiva, Marlborough, MA, USA). Affinity tests for Cpd.51 and DHRS3 were also performed using the aforementioned method.

[3] = Acute (7-day i.v.) toxicity in rats; format: in vivo, rat; conditions: 10 mg/kg i.v. daily for 7 days
Protocol: as §1
Glutamic-pyruvic transaminase (GPT) kits (ml092635, mlbio, China), glutamic oxaloacetic transaminase (GOT) kits (ml092714, mlbio, China), creatinine (CRE) kits (M12C4L, mlbio, China) and blood urea nitrogen (BUN) kits (ml076479, China) were used to detect the serum of rats in order to evaluate liver and kidney functions. Male and female rats were randomly divided into Sham group, Cpd.51 group and Oma group. Doses were administered once daily at 10 mg/kg and body weights were recorded accordingly. Sham groups were given the same volume of solvent. After 7 days, the […] were sacrificed, serum was collected and tested according to the instructions.

[4] = Pharmacokinetics in male rats (LC-MS/MS); format: in vivo; conditions: SD, rat, plasma
[5] = molecular target: T1, Keap1 BTB domain (48-180) (Homo sapiens, UniProt Q14145); assay: SPR binding to truncated Keap1 (48-180); conditions: read-out: KD, Keap1 BTB domain fragment
T1 construct: truncated form of Keap1 (residues 48-180 and residues 48-149)
T1 sequence (Q14145 48-180): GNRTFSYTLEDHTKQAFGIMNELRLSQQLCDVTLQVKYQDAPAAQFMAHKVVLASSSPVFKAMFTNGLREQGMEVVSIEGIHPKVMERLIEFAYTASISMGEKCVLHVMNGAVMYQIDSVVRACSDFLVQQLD
Protocol: as §2

[6] = tested on: SH-SY5Y cells; assay: Protection against OGD/R damage in SH-SY5Y cells (CCK-8); format: cell-based, human; conditions: for EC50: Homo sapiens
Protocol: To mimic ischemic conditions in vitro, cells were washed with PBS and then cultured for 2.5 h at 37 °C in glucose-free medium under anaerobic conditions (5% hydrogen, 90% nitrogen, and 5% carbon dioxide). OGD process was terminated by transferring cells back to normal glucose-containing medium under normoxic conditions (5% CO₂, 37 °C) and maintained for 24 h.
In the administration group, cells were exposed for 12 h with Cpd.51 prior to OGD. OGD lasted for 2.5 h and the reperfusion lasted for 24 h before the experiment was concluded. Subsequently, cell viability was determined using the cell counting kit-8 (CCK-8, C0039, Beyotime, China). In the experiment to explore the treatment time window, the only difference was the timing of the Cpd.51 treatment, while all other procedures remained unchanged.
Hek-293T cells were transiently transfected, using Lipofectamine™ 3000 and P3000™ reagent (L3000075, Invitrogen, USA) according to the manufacturer's instructions, with the wild-type, point-mutant and double-mutations constructs of Keap1, DHRS3 or Nrf2 (each at 0.5 ng/μL), respectively. Similarly, to promote the expression of the DHRS3 gene, a DHRS3 expression plasmids (0.5 ng/μL) was transfected as well as the corresponding negative controls into SH-SY5Y cells for 6 h, and further cultured with fresh medium for 18 h according to the manufacturer's instructions.

[7] = 5 mg/kg i.v. at 4 h post-ischemia, read at 24 h

CC1(C)CCC2(C(=O)NO)CCC3(C)C(C(=O)C=C4C5(C)C=C(C#N)C(=O)C(C)(C)C5CCC43C)C2C1 (stereo not shown) [Cpd.51]
area of infarction (TTC) ([1]; 3 mg/kg and 5 mg/kg i.v. at the same time as ischemia): significantly reduced the area of infarction | infarction volume, delayed administration [1, 7]: significantly diminished infarction volume | mNSS scores, delayed administration [1, 7]: improved mNSS scores | Nrf2, HO-1 and NQO1 protein levels in peri-infarct cortex ([1]; 24 h post tMCAO, immunoblotting): significantly upregulated | cell type of Nrf2 enrichment (co-staining NeuN, GFAP, Iba-1) ([1]; peri-infarct region, 24 h after ischemia): Nrf2 was selectively enriched in neurons | mNSS scores ([1]; tMCAO rats, i.v.): significantly inhibited the increase in mNSS scores | GSH and MDA in cortical tissues ([1]; tMCAO rats, peri-infarct cortex): restoring GSH concentrations and suppressing MDA accumulation | Kd [2]: 67.2 µM | liver hypertrophy, serum GPT and GOT [3]: not observed | serum CRE and BUN [3]: did not induce these changes | weight gain [3]: suppressed weight gain | half-life ([4]; 30 mg/kg, i.g. (oral)): 382 min | half-life ([4]; iv, 5 mg/kg): 89.4 ± 18.6 min | AUC(0-t) ([4]; po, 30 mg/kg, i.g.): 685 ± 111 ng·h/mL | Cmax ([4]; po, 30 mg/kg, i.g.): 124 ± 37 ng/mL | MRT last ([4]; po, 30 mg/kg, i.g.): 5.17 ± 0.72 h | bioavailability ([4]; po, 30 mg/kg, i.g., read-out: F (oral bioavailability)): 11.5% | Kd [5]: 31.3 µM | OGD/R damage when administered at different time points ([6]; 100 nM, CCK-8): consistently alleviated OGD/R damage | EC50 ([6]; SH-SY5Y, DHRS3-OE (DHRS3 overexpression plasmid), read-out: EC50 of cytoprotection against OGD/R): 183 nM | EC50 ([6]; SH-SY5Y, NC-OE, read-out: EC50 of cytoprotection against OGD/R): 53 nM | EC50 ([6]; read-out: EC50 against OGD/R damage): 19.7 nM
